Results as given in PubChem BioAssay AID2060490 (Molecular Pharmacology Branch, DTP, NCI, 2025).

Tested on: 885512-296-R-J2-PDC complex spheroid viability
Assay: Anticancer human tumor 885512-296-R-J2-PDC patient-derived breast carcinoma cell line growth inhibition [GQUAD]
Conditions: for IC50: curve of first compound; for viability, T/C: stronger effect = lower value
Description: DNA G-quadruplex Stabilizer Agents in Combinations in Complex Spheroids
A high-throughput screen of multi-cell type tumor spheroids was designed to identify active combinations of DNA G-quadruplex stabilizer agents and targeted small molecules. Complex spheroids include a stromal component modeled by human endothelial cells (HUVEC) and fibroblasts modeled by human mesenchymal stem cells (MSCs). The concentration ranges selected for each drug and investigational agent were based upon clinically achievable concentrations if the clinical Cmax of the agent was known.
Compounds. The drugs and investigational agents: pidnarulex (CX-5461; NSC782164), APTO-253 (NSC789042), BRACO-19 (NSC847499), peposertib (NSC802822), ceralasertib (NSC780249), elimusertib (NSC800525), camonsertib (NSC841442), AZD-1390 (NSC803789), olaparib (NSC753686), talazoparib (NSC767125), ART-558 (NSC835418), sotorasib (NSC818433), MRTX-1133 (NSC836407), SN-38 (NSC673596), topotecan (NSC609699), etoposide (NSC141540), doxorubicin (NSC123127), gemcitabine (NSC613327), 5-fluorouracil (NSC19893), paclitaxel (NSC125973), vemurafenib (NSC761431), panobinostat (NSC761190), R-306465 (JNJ-16241199; NSC773264), adavosertib (NSC754352), TP-3654 (NSC805149), carboplatin (NSC241240), KSQ-4279 (NSC840948), and staurosporine (NSC755774) were obtained from the National Cancer Institute (NCI) Developmental Therapeutics Program Chemical Repository (34). The FDA-approved anticancer drug set is available from the NCI Developmental Therapeutics Program. […] The stock solutions were prepared in dimethyl sulfoxide (DMSO, Sigma-Aldrich, St. Louis, MO, cat. D2650) at 800-fold the tested concentration and stored at -70 degrees C prior to their use. All drugs and investigational agents were tested over a range starting from a high concentration at or near the clinical Cmax and decreasing in half-log increments. If the clinical Cmax for an agent had not been determined, the highest concentration tested was 10 microM.
2.3 Cell Culture. All cells were maintained in an incubator at 37 degrees C and 5% CO2 with 95% humidity. The PDC lines were cultured according to standard operating procedures established by the NCI PDMR. All PDCs were thawed and cultured in Matrigel-coated flasks prepared with a working solution of 1X Ham's F-12 nutrient mix, without supplementation (Invitrogen, cat. 11765054), 100 U/mL penicillin-streptomycin (Invitrogen, cat. 15140122), and 2.5% Matrigel (Corning Inc., cat. 354248) for the first three passages. The 857933-349-R-J2-PDC line was cultured in 6C/Colon 1B media, which includes advanced DMEM/F-12 (Thermo Fisher Scientific, cat. 12634028), 10 mM HEPES (Thermo Fisher Scientific, cat. 15630080), 1X GlutaMAX supplement (Thermo Fisher Scientific, cat. 35050061), 0.1 mg/mL primocin (InvivoGen, cat. ant-pm-2), 10% defined fetal bovine serum, heat inactivated (HyClone Laboratories Inc., cat. SH30070.03HI), 50% L-WRN conditioned media (ATCC, cat. CRL-3276), 1.25 mM N-Acetyl-L-cysteine (Sigma-Aldrich, cat. A9165), 10 mM nicotinamide (Sigma-Aldrich, cat. N0636), 1X B-27 supplement (Thermo Fisher Scientific, cat. 17504044), 1X N-2 supplement (Thermo Fisher Scientific, cat. 17502048), 10 microM Y-27632 dihydrochloride (Tocris Bioscience, cat. 1254), and 50 ng/mL human EGF recombinant protein (Thermo Fisher Scientific, cat. PHG0311). The 485176-168-R4-J1-PDC line was cultured in Panc media, which includes all 6C/Colon 1B media components plus 100 ng/mL human FGF-10 (Thermo Fisher Scientific, cat. 100-26), 500 nM SB-431542 (Selleckchem, cat. S1067), and gastrin (Tocris, cat. 3006).
[…]

[1] = second compound 0.0316 µM, first compound 0.0316 µM
[2] = second compound 0.0316 µM, first compound 0.1 µM
[3] = second compound 0.0316 µM, first compound 0.316 µM
[4] = second compound 0.0316 µM, first compound 1 µM
[5] = second compound 0.0316 µM, first compound 3.16 µM
[6] = second compound 0.0316 µM, first compound 10 µM
[7] = second compound 0.1 µM, first compound 0.0316 µM
[8] = second compound 0.1 µM, first compound 0.1 µM
[9] = second compound 0.1 µM, first compound 0.316 µM
[10] = second compound 0.1 µM, first compound 1 µM
[11] = second compound 0.1 µM, first compound 3.16 µM
[12] = second compound 0.1 µM, first compound 10 µM
[13] = second compound 0.316 µM, first compound 0.0316 µM
[14] = second compound 0.316 µM, first compound 0.1 µM
[15] = second compound 0.316 µM, first compound 0.316 µM
[16] = second compound 0.316 µM, first compound 1 µM
[17] = second compound 0.316 µM, first compound 3.16 µM
[18] = second compound 0.316 µM, first compound 10 µM
[19] = second compound 1 µM, first compound 0.0316 µM
[20] = second compound 1 µM, first compound 0.1 µM
[21] = second compound 1 µM, first compound 0.316 µM
[22] = second compound 1 µM, first compound 1 µM
[23] = second compound 1 µM, first compound 3.16 µM
[24] = second compound 1 µM, first compound 10 µM
[25] = second compound 3.16 µM, first compound 0.0316 µM
[26] = second compound 3.16 µM, first compound 0.1 µM
[27] = second compound 3.16 µM, first compound 0.316 µM
[28] = second compound 3.16 µM, first compound 1 µM
[29] = second compound 3.16 µM, first compound 3.16 µM
[30] = second compound 3.16 µM, first compound 10 µM
[31] = second compound 10 µM, first compound 0.0316 µM
[32] = second compound 10 µM, first compound 0.1 µM
[33] = second compound 10 µM, first compound 0.316 µM
[34] = second compound 10 µM, first compound 1 µM
[35] = second compound 10 µM, first compound 3.16 µM
[36] = second compound 10 µM, first compound 10 µM
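Note: spheroids exposed to the compounds for one week.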
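Throughout, for viability, T/C: percent of tumor spheroid viability relative to DMSO vehicle control wells.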

`C=CCn1c(=O)c2cnc(Nc3ccc(N4CCN(C)CC4)cc3)nc2n1-c1cccc(C(C)(C)O)n1` + Cc1[nH]c2ccc(F)cc2c1-c1nc2c3cccnc3c3ncccc3c2[nH]1 was tested. Which IC50 (second compound 0.0316 µM) did it give?
Its IC50 is 6.58 µM.

And the IC50 (second compound 0.1 µM)?
Its IC50 is 6.68 µM.

What about the IC50 (second compound 0.316 µM) of the same molecule?
Its IC50 is 6.26 µM.

What about the IC50 (second compound 1 µM) of the same molecule?
Its IC50 is 1.46 µM.

What about the IC50 (second compound 3.16 µM) of the same molecule?
Its IC50 is under 0.0316 µM.

And the IC50 (second compound 10 µM)?
Its IC50 is under 0.0316 µM.

And the viability, T/C [1]?
The viability, T/C was 128%.

What about the viability, T/C [2] of the same molecule?
Its viability, T/C is 96.4%.

And the viability, T/C [3]?
The viability, T/C was 96.5%.

What about the viability, T/C [4] of the same molecule?
Its viability, T/C is 125%.

And the viability, T/C [5]?
The viability, T/C was 83.7%.

What about the viability, T/C [6] of the same molecule?
The viability, T/C was 30.8%.

What about the viability, T/C [7] of the same molecule?
Its viability, T/C is 108%.

And the viability, T/C [8]?
Its viability, T/C is 102%.

And the viability, T/C [9]?
The viability, T/C was 97.2%.

And the viability, T/C [10]?
The viability, T/C was 104%.

What about the viability, T/C [11] of the same molecule?
The viability, T/C was 88%.

What about the viability, T/C [12] of the same molecule?
The viability, T/C was 29.2%.

What about the viability, T/C [13] of the same molecule?
The viability, T/C was 88%.

What about the viability, T/C [14] of the same molecule?
The viability, T/C was 98%.

And the viability, T/C [15]?
The viability, T/C was 96.1%.

What about the viability, T/C [16] of the same molecule?
The viability, T/C was 95.6%.

And the viability, T/C [17]?
Its viability, T/C is 89.2%.

And the viability, T/C [18]?
Its viability, T/C is 23%.

And the viability, T/C [19]?
The viability, T/C was 74.3%.

And the viability, T/C [20]?
Its viability, T/C is 68.4%.

What about the viability, T/C [21] of the same molecule?
Its viability, T/C is 61.6%.

What about the viability, T/C [22] of the same molecule?
The viability, T/C was 59.1%.

And the viability, T/C [23]?
The viability, T/C was 37.4%.

And the viability, T/C [24]?
The viability, T/C was 8.34%.

And the viability, T/C [25]?
Its viability, T/C is 6.03%.

What about the viability, T/C [26] of the same molecule?
Its viability, T/C is 7.36%.

What about the viability, T/C [27] of the same molecule?
The viability, T/C was 2.92%.

And the viability, T/C [28]?
Its viability, T/C is 6.25%.

What about the viability, T/C [29] of the same molecule?
Its viability, T/C is 8.08%.

And the viability, T/C [30]?
Its viability, T/C is 1.1%.

What about the viability, T/C [31] of the same molecule?
The viability, T/C was 1.82%.

What about the viability, T/C [32] of the same molecule?
Its viability, T/C is 2.1%.

And the viability, T/C [33]?
The viability, T/C was 2.49%.

And the viability, T/C [34]?
Its viability, T/C is 1.79%.

And the viability, T/C [35]?
The viability, T/C was 2.05%.

What about the viability, T/C [36] of the same molecule?
The viability, T/C was 1.03%.

Which results are given for `CC(C)(O)C1CCC(Nc2ccc3ncc(-c4cccc(C(F)(F)F)c4)n3n2)CC1` (centres undefined) + Cc1[nH]c2ccc(F)cc2c1-c1nc2c3cccnc3c3ncccc3c2[nH]1?
IC50 (second compound 0.0316 µM): > 10 µM; IC50 (second compound 0.1 µM): > 10 µM; IC50 (second compound 0.316 µM): > 10 µM; IC50 (second compound 1 µM): 6.91 µM; IC50 (second compound 3.16 µM): < 0.0316 µM; IC50 (second compound 10 µM): < 0.0316 µM; viability, T/C [1]: 102%; viability, T/C [2]: 92.3%; viability, T/C [3]: 92.1%; viability, T/C [4]: 95.3%; viability, T/C [5]: 99%; viability, T/C [6]: 81.1%; viability, T/C [7]: 106%; viability, T/C [8]: 101%; viability, T/C [9]: 92.8%; viability, T/C [10]: 76.1%; viability, T/C [11]: 84.9%; viability, T/C [12]: 86.9%; viability, T/C [13]: 101%; viability, T/C [14]: 89.6%; viability, T/C [15]: 83.1%; viability, T/C [16]: 92.5%; viability, T/C [17]: 81.8%; viability, T/C [18]: 63.6%; viability, T/C [19]: 69%; viability, T/C [20]: 70.7%; viability, T/C [21]: 73.6%; viability, T/C [22]: 69.9%; viability, T/C [23]: 58.6%; viability, T/C [24]: 45.3%; viability, T/C [25]: 9.24%; viability, T/C [26]: 12.2%; viability, T/C [27]: 10.3%; viability, T/C [28]: 10.4%; viability, T/C [29]: 12.7%; viability, T/C [30]: 2.78%; viability, T/C [31]: 1.94%; viability, T/C [32]: 1.3%; viability, T/C [33]: 2.71%; viability, T/C [34]: 3.75%; viability, T/C [35]: 4.01%; viability, T/C [36]: 1%
